Source: ChEMBL document CHEMBL3137667, “[Drug-induced liver injury; fourteenth updated edition of the bibliographic database of liver injuries and related drugs]” (Gastroenterol Clin Biol, 2004)

Experiments:
[1] = Highest frequency of acute liver toxicity observed during clinical trials, expressed as a percentage. [column '% AIGUE' in source]; conditions: human
[2] = human, serum
[3] = human, serum, 4383 h
[4] = human
[5] = human; remark: listed apart in the source
[6] = human; remark: listed apart in the source
[7] = Comments (NB not yet translated). [column 'COMMENTAIRES' in source]; conditions: human
[8] = human; remark: listed apart in the source
[9] = human, serum; remark: listed apart in the source
[10] = Presence of at least one case with successful reintroduction. [column 'REINT' in source]; conditions: human
[11] = human; remark: listed apart in the source
[12] = human; remark: listed apart in the source
[13] = Times to onset, minimal and maximal, observed in the indexed observations. [column 'DELAI' in source]; conditions: human
[14] = Proposed mechanism(s) of liver damage. [column 'MEC' in source]; conditions: human
[15] = human; remark: listed apart in the source
[16] = Highest frequency of moderate liver toxicity observed during clinical trials, expressed as a percentage. [column '% BIOL' in source]; conditions: human
[17] = human; remark: listed apart in the source
[18] = human; remark: listed apart in the source
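Throughout, for Hepatotoxicity (association with vascular disease): count of indexed literature references reporting vascular liver injury in humans, e.g. peliosis hepatitis, hepatic veno-occlusive disease or Budd-Chiari syndrome.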
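Throughout, for Hepatotoxicity (benign tumour): value is a count of indexed literature references citing a benign tumour confirmed by histopathology.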
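Throughout, for Hepatotoxicity (choleostasis): human cholestatic liver injury, shown by histopathology or by peak ALT or AST elevation over alkaline phosphatase ratio below 2, value counts indexed literature reports.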
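Throughout, for Hepatotoxicity (chronic liver disease): chronic liver injury confirmed by histopathology or persistently raised serum aminotransferase activity beyond 6 months, value given as the count of indexed literature references.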
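Throughout, for Hepatotoxicity (cirrhosis): value is a count of indexed literature references reporting cirrhosis confirmed by histopathology.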
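Throughout, for Hepatotoxicity (cytolytic): human cytolytic liver injury, shown by histopathology or by a ratio above 5 of peak ALT or AST elevation to alkaline phosphatase elevation, value counts indexed references.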
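Throughout, for Hepatotoxicity (granulomatous hepatitis): value is a count of indexed literature references reporting granulomatous liver disease confirmed by histopathology.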
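Throughout, for Hepatotoxicity (malignant tumour): malignant tumour confirmed by histopathology, value gives the count of indexed literature references reporting it.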
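Throughout, for Hepatotoxicity (severe hepatitis): human clinical data: severe hepatitis, meaning potentially life-threatening liver failure or clinically observed cases, the value counts how many indexed literature references report it.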
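Throughout, for Hepatotoxicity (steatosis): steatosis confirmed by histopathology, value is the count of indexed references.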

Row | SMILES | Hepatotoxicity (acute) [1] [%] | Hepatotoxicity (acute) [2] | Hepatotoxicity (chronic liver disease) [3] | Hepatotoxicity (association with vascular disease) [4] | Hepatotoxicity (severe hepatitis) [5] | Hepatotoxicity (malignant tumour) [6] | Hepatotoxicity (comment) [7] | Hepatotoxicity (steatosis) [8] | Hepatotoxicity (moderate) [9] | Hepatotoxicity (successful reintroduction) [10] | Hepatotoxicity (benign tumour) [11] | Hepatotoxicity (choleostasis) [12] | Hepatotoxicity (time to onset) [13] | Hepatotoxicity (mechanism) [14] | Hepatotoxicity (granulomatous hepatitis) [15] | Hepatotoxicity (moderate) [16] [%] | Hepatotoxicity (cirrhosis) [17] | Hepatotoxicity (cytolytic) [18] | Hepatotoxicity (acute) ([1]; Liver) [%] | Hepatotoxicity (severe hepatitis) ([5]; Liver) | other results
1 | COc1ccc(Cl)cc1C(=O)NCCc1ccc(S(=O)(=O)NC(=O)NC2CCCCC2)cc1 [GLYBURIDE] | 0 | 14 | 0 | 0 | 0 | 0 | CHOLANGITE DUCTOPENIE | 0 | 7 | yes | 0 | 10 | 2 weeks - 7 years | Allergic, Dose-dependant | 2 | 6.7 | 1 | 2 | – | – | –
2 | NNc1nncc2ccccc12 [HYDRALAZINE] | – | 9 | 3 | 0 | – | 0 | CHOLANGITE AC_ANTI-N | 0 | 4 | yes | 0 | – | 2 days - 3 years | – | – | – | 0 | – | 0 | 2 | Hepatotoxicity (choleostasis) ([12]; Liver): 3; Hepatotoxicity (mechanism) ([14]; Liver): Allergic, Toxic; Hepatotoxicity (granulomatous hepatitis) ([15]; Liver): 6; Hepatotoxicity (moderate) ([16]; Liver): 0%; Hepatotoxicity (cytolytic) ([18]; Liver): 6
3 | CC(C)Cc1ccc(C(C)C(=O)O)cc1 (stereo unspecified) [IBUPROFEN] | – | 20 | 1 | 0 | – | 0 | RC/DICLOFENAC CHOLESTASE_PROLONGEE DUCTOPENIE REACTIVATION_HSV6 | 1 | 10 | yes | 0 | 6 | 1 day - 4 months | Allergic, Overdose | 0 | – | 1 | 14 | 0 | 6 | Hepatotoxicity (moderate) ([16]; Liver): 16%
4 | Sc1ncnc2nc[nH]c12 [MERCAPTOPURINE ANHYDROUS] | – | 30 | 0 | 2 | – | 3 | I/DOXORUBICINE CHOLANGITE | 0 | 13 | yes | 0 | – | 2 days - 2 years | – | – | – | 0 | – | 4.9 | 5 | Hepatotoxicity (choleostasis) ([12]; Liver): 15; Hepatotoxicity (mechanism) ([14]; Liver): Dose-dependant; Hepatotoxicity (granulomatous hepatitis) ([15]; Liver): 0; Hepatotoxicity (moderate) ([16]; Liver): 53%; Hepatotoxicity (cytolytic) ([18]; Liver): 15
5 | Nc1ccc(O)c(C(=O)O)c1 [MESALAMINE] | 1 | 12 | 1 | 0 | 1 | 0 | CHOLANGITE RC/SULFASALAZINE AC_ANTI-N/-ML | 0 | 14 | yes | 0 | 3 | 1 day - 1 year | Allergic | 1 | 21 | 0 | 5 | – | – | –
6 | C[C@](N)(Cc1ccc(O)c(O)c1)C(=O)O [METHYLDOPA] | 1.3 | 24 | 27 | 0 | 13 | 1 | AC_ANTI-N/-ML/-MF RC/ALLOPURINOL | 3 | 10 | yes | 0 | 10 | 3 days - 12 years | Allergic, Toxic | 8 | 35 | 7 | 16 | – | – | –
7 | CN1CCN2c3ccccc3Cc3ccccc3C2C1 (stereo unspecified) [MIANSERIN] | 0 | 5 | 0 | 0 | 0 | 0 | RC/NOMIFENSINE | 0 | 3 | yes | 0 | 5 | 1 day - 1.8 years | Dose-dependant, Reactive metabolite | 0 | 26 | 0 | 3 | – | – | –
8 | CCn1cc(C(=O)O)c(=O)c2cc(F)c(N3CCNCC3)cc21 [NORFLOXACIN] | – | 9 | 0 | 0 | – | 0 | AC_ANTI-N | 0 | 15 | yes | 0 | – | 1 day - 10 days | – | – | – | 0 | – | 0 | 0 | Hepatotoxicity (choleostasis) ([12]; Liver): 6; Hepatotoxicity (mechanism) ([14]; Liver): Allergic; Hepatotoxicity (granulomatous hepatitis) ([15]; Liver): 0; Hepatotoxicity (moderate) ([16]; Liver): 7.7%; Hepatotoxicity (cytolytic) ([18]; Liver): 3
9 | Cc1ncc([N+](=O)[O-])n1CC(O)CCl (stereo unspecified) [ORNIDAZOLE] | 0 | 2 | 1 | 0 | 0 | 0 | AC_ANTI-ML/-N | 0 | 1 | yes | 0 | 0 | 3 days - 6 months | Allergic | 0 | 0 | 0 | 2 | – | – | –
10 | Cc1onc(-c2ccccc2)c1C(=O)N[C@@H]1C(=O)N2[C@@H]1SC(C)(C)[C@@H]2C(=O)O [OXACILLIN] | 22 | 17 | 0 | 0 | 0 | 0 | RC/CEFALOTINE/NAFCILLINE | 1 | 12 | yes | 0 | 4 | 2 days - 2.5 months | Allergic, Toxic Metabolite | 1 | 81 | 0 | 14 | – | – | –
11 | O=C1Nc2ccccc2C1(c1ccc(O)cc1)c1ccc(O)cc1 [OXYPHENISATINE] | 0 | 6 | 27 | 0 | 1 | 0 | AC_ANTI-ADN/-N/-ML | 0 | 0 | yes | 0 | 0 | 1 week - 13 years | Allergic | 0 | 0 | 8 | 1 | – | – | –
12 | COc1ccc(Cc2nccc3cc(OC)c(OC)cc23)cc1OC [PAPAVERINE] | 3.3 | 9 | 4 | 0 | 0 | 0 | AC_ANTI-ADN/-N PERICHOLANGITE | 0 | 11 | yes | 0 | 6 | 1 day - 11 years | Allergic, Toxic Metabolite | 1 | 53 | 3 | 7 | – | – | –
